The source of these data is patent publication US7528252B2, “Derivatives of triazoly-imidazopyridine useful as ligands of the adenosine A2a receptor and their use as medicaments” (Sigma-Tau Industrie Farmaceutiche Riunite S.p.A., priority 2002, dated 2009).

In general, Ki refers to a dissociation constant, usually derived from enzyme kinetics or from competition with a known ligand.

For series [1] the following is noted: literature (Ongini et al.); cited from earlier work.
In a further series the target is T1, human A2b receptor (Homo sapiens, UniProt P29275).
T1 construct: expressed in transfected cells; host or cells: HEK 293
T1 sequence (P29275 1-332): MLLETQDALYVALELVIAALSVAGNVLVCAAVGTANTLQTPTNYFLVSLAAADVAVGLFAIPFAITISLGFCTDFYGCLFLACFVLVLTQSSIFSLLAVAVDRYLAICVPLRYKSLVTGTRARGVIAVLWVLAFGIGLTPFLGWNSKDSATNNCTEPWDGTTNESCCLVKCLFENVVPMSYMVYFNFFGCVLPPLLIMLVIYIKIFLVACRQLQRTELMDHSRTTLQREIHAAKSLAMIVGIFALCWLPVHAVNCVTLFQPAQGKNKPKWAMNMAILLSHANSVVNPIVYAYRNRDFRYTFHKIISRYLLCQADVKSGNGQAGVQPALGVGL
Briefly: Affinity towards the adenosine A2b receptor ([3H]-DPCPX binding, HEK 293 membranes). To be noted: read-out: A2b Ki (nM) ± sd. The protocol:
The interactive capacity of each product towards the adenosine A2b receptor was evaluated using membranes from HEK 293 cells stably expressing the human A2b receptor subtype exclusively.
Non-specific binding was measured in the presence of NECA (50 μM).
In binding studies for each compound, eight different concentrations (from 10^−5 M to 10^−12 M) were evaluated in order to obtain competition curves. By means of non-linear regression analysis of the competition curves, the IC50 values, which express the binding affinity of each product, were determined. Using the Cheng Prusoff equation (Ki=IC50/1+(L/Kd)) Ki values were calculated through which the affinity of each product studied, for the receptor investigated, is expressed.

Series [2] deals with T2, human A1 subtype adenosine receptor (Homo sapiens, UniProt P30542).
T2 construct: expressed in transfected cells; host or cells: CHO-K1
T2 sequence (P30542 1-326): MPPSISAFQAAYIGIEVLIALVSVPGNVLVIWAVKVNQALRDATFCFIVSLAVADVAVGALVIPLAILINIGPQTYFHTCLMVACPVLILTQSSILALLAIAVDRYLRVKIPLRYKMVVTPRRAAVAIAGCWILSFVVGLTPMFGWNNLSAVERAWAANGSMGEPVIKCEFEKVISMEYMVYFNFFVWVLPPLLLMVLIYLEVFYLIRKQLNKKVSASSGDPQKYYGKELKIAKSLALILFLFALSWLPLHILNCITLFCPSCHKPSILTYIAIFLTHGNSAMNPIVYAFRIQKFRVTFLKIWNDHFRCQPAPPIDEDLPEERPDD
In words: Affinity towards the adenosine A1 receptor ([3H]-DPCPX binding, CHO-K1 membranes). The settings on record: read-out: A1 Ki (nM) ± sd.

For series [3], the target named is T3, human A2a receptor (Homo sapiens, UniProt P29274). The settings on record: ratio of receptor affinity (selectivity).
T3 sequence (P29274 whole entry): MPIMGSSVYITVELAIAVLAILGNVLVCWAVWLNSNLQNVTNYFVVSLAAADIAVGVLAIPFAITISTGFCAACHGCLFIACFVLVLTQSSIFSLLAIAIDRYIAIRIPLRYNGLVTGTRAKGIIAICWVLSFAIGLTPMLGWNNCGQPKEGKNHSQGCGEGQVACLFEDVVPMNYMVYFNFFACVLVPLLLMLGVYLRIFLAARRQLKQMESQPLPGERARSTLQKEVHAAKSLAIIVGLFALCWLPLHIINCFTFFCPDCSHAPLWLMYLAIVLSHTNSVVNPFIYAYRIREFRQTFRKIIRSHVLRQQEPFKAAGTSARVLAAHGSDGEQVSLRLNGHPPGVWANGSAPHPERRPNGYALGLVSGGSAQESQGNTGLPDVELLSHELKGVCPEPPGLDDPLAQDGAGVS
In series [4] the target is T3, human A2a receptor. In words: biochemical.
Series [5] deals with CD1 male mice. In words: Effects on spontaneous motor activity in mice. Type of series: in vivo. The settings on record: mean ± s.e. How it is done:
For this study, type CD1 male mice (n=8) were used. The effects of the products under study and of the reference compounds were evaluated using an apparatus consisting of a Plexiglas cage (40 cm×40 cm) surrounded by a series of photocells which monitor the movements of the animals placed inside, connected a computerised system, through which, the signals are collected and later elaborated.
Tests were carried out, after endoperitoneal administration of the products. 15 minutes after treatment, the treated animals, alternating with the controls, were placed inside the cage so as to record their spontaneous movements over a total period of 45 minutes broken down into two observation intervals (15′-45′ and 45′-60′, with respect to the time after treatment).
To examine the possible effects of the compounds studied on motor activity, the following parameters were considered: horizontal activity, vertical activity: total distance.
Except for CGS 21680 (reference compound, described in EP 0 277 917, Ciba-Geigy) which was dissolved in 0.9% NaCl, the products studied were solubilised in DMSO and then diluted in Cremofor EL and 0.9% NaCl (final concentrations: DMSO 15%, Cremofor EL 15%, NaCl 0.9%.

In series [6] the test system is CD1 male mice. In words: Capacity of the products to induce catalepsy in mice. Type of series: in vivo. To be noted: 60 mg/kg, endoperitoneal, 30 minutes prior to the test. The protocol:
10 CD1 male mice were used per group. For this test, a steel bar, 10 cm long, was placed at a height of 4.5 cm above the support surface. Onto this, were placed the front legs of the animals. The presence of catalepsy was determined by measuring the time (in seconds) the animal remained in the posture placed. Later, this parameter was placed relatively, on a scale of rising values (0 to 5) through which, the degree of catalepsy determined in both control animals and in these subjected to treatment with the substances under test could be proportionately expressed.
The reference products and these in this study were administered endoperitoneally, in a volume of 10 ml/kg, 30 minutes prior to the test.
Except for CGS 21680 (reference compound) which was dissolved in 0.9% NaCl, the products in the study and the control antagonist ZM 241385 were solubilised in DMSO and then diluted in Cremofor EL and 0.9% NaCl (final concentrations: DMSO 15%, Cremofor EL 15%, NaCl 0.9%).

For series [7] the following is noted: El Yacoubi M; et al Eur. J. Pharm. 401 (2000) 63-77; cited from earlier work.
The mark [8] stands for this setting: 15 mg/kg endoperitoneal, interval 15′-45′ from treatment.
Setting [9] is: 15 mg/kg endoperitoneal, interval 45′-60′ from treatment.
Setting [10] is: 30 mg/kg endoperitoneal, interval 15′-45′ from treatment.
Where [11] appears, read: 30 mg/kg endoperitoneal, interval 45′-60′ from treatment.
The mark [12] stands for this setting: 60 mg/kg endoperitoneal, interval 15′-45′ from treatment.
Setting [13] is: 60 mg/kg endoperitoneal, interval 45′-60′ from treatment.

Regarding `CCn1c(=O)c2c(nc(/C=C/c3ccc(OC)c(OC)c3)n2C)n(CC)c1=O` [KW-6002], the “photoisomerisation of the ethylenic bond (stability)” value in series [1] was “subject to loss of activity through photoisomerisation of the ethylenic bond”.

With `Cn1c(-n2nccn2)nc2c(N)nccc21` [ST 1680, 4-amino-1-methyl-2-(triazol-2-yl)-1(H)-imidazo[4,5-c]pyridino triflate], the Ki on human A2b receptor is 926 ± 55 nM; in series [2], 1560 ± 252 nM; at human A2a receptor [4], 97 ± 23 nM. Besides, on human A2a receptor [3], the KiA1/KiA2a was 16.

As to `Nc1nc(NCCc2ccc(O)cc2)nc2nc(-c3ccco3)nn12` [ZM 241385, reference compound], the Horizontal activity in the series on CD1 male mice [5] (setting [8]) is 8706 ± 473; in the series with CD1 male mice [5] (setting [9]), 4148 ± 241; with CD1 male mice [5] (setting [10]), 7035 ± 709; in the series with CD1 male mice [5] (setting [11]) it was 3505 ± 375; in the series on CD1 male mice [5] (setting [12]), 7790 ± 980; with CD1 male mice [5] (setting [13]), 4241 ± 407. The Total distance stood at 2280 ± 242 with CD1 male mice [5] (setting [8]); 1022 ± 130 in the series with CD1 male mice [5] (setting [9]); 1725 ± 186 with CD1 male mice [5] (setting [10]); 783 ± 165 in the series with CD1 male mice [5] (setting [11]); 2250 ± 401 in the series with CD1 male mice [5] (setting [12]); 1131 ± 158 in the series with CD1 male mice [5] (setting [13]). Moreover, the Vertical activity with CD1 male mice [5] (setting [8]) is listed as 680 ± 64; in the series on CD1 male mice [5] (setting [9]), 362 ± 78; in the series with CD1 male mice [5] (setting [10]), 613 ± 102; in the series with CD1 male mice [5] (setting [11]), 282 ± 37; in the series with CD1 male mice [5] (setting [12]), 570 ± 129; in the series on CD1 male mice [5] (setting [13]), 264 ± 56. Further, the “appearance of catalepsy in mice (FIG. 1)” value with CD1 male mice [6] is on record as “none of them brought about the appearance of catalepsy in mice, analogous to the reference antagonist”. Besides, the bioavailability in vivo entry in series [7] is on record as “very low bioavailability”.
